Values of other authors, collected in patent publication US20040208936A1, “Novel compositions” (priority 2002, published 2004).
≈ marks a conversion by molar mass, not a printed value.

Tested on: S pneumoniae
Conditions: some 10% of pneumococci

CC1(C)S[C@@H]2[C@H](NC(=O)[C@H](N)c3ccc(O)cc3)C(=O)N2[C@H]1C(=O)O [Amoxicillin]
MIC: 2 µg/mL (≈ 5.47 µM)
